According to PubChem BioAssay AID2060912 (Molecular Pharmacology Branch, DTP, NCI, 2025):

Test system: HUVEC/MSC spheroids viability
Assay: Human HUVEC/MSC cell line growth inhibition [KRAS2];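 on viability, T/C: percent of DMSO vehicle control luminescence so 100% = untreated viability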
Conditions: for IC50: curve of first compound; for viability, T/C: stronger effect = lower value
Procedure, shortened: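 HUVEC + hMSC stromal spheroids only, no malignant cells; 37 °C, 5% CO2. Drugs singly and in pairs, half-log series down from clinical Cmax (max 10 microM if Cmax undetermined).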

With CC(C)NCC(C(=O)N1CCN(c2ncnc3c2C(C)CC3O)CC1)c1ccc(Cl)cc1 (centres undefined) + C=CC(=O)N1CCN(c2nc(OCC3CCCN3C)nc3c2CCN(c2cccc4cccc(C)c24)C3)CC1CC#N the IC50 (second compound 0.00949 µM) was > 10 µM, the IC50 (second compound 0.03 µM) was > 10 µM and the IC50 (second compound 0.0949 µM) was > 10 µM. The IC50 (second compound 0.3 µM) was 6.17 µM, the IC50 (second compound 0.949 µM) was > 10 µM and the IC50 (second compound 3 µM) was > 10 µM. The viability, T/C (second compound 0.00949 µM, first compound 0.0316 µM) was 102%, the viability, T/C (second compound 0.00949 µM, first compound 0.1 µM) was 92.3% and the viability, T/C (second compound 0.00949 µM, first compound 0.316 µM) was 98.8%. For the same molecule, the viability, T/C (second compound 0.00949 µM, first compound 1 µM) was 66.7%, the viability, T/C (second compound 0.00949 µM, first compound 3.16 µM) was 67.7% and the viability, T/C (second compound 0.00949 µM, first compound 10 µM) was 57.2%. It also gave a viability, T/C (second compound 0.03 µM, first compound 0.0316 µM) of 85.8%, a viability, T/C (second compound 0.03 µM, first compound 0.1 µM) of 91.8% and a viability, T/C (second compound 0.03 µM, first compound 0.316 µM) of 94.8%. It also gave a viability, T/C (second compound 0.03 µM, first compound 1 µM) of 61.3%, a viability, T/C (second compound 0.03 µM, first compound 3.16 µM) of 65.4% and a viability, T/C (second compound 0.03 µM, first compound 10 µM) of 46.1%. For the same molecule, the viability, T/C (second compound 0.0949 µM, first compound 0.0316 µM) was 95.4%, the viability, T/C (second compound 0.0949 µM, first compound 0.1 µM) was 97.5% and the viability, T/C (second compound 0.0949 µM, first compound 0.316 µM) was 78.2%. It also gave a viability, T/C (second compound 0.0949 µM, first compound 1 µM) of 79.8%, a viability, T/C (second compound 0.0949 µM, first compound 3.16 µM) of 53.4% and a viability, T/C (second compound 0.0949 µM, first compound 10 µM) of 57.4%. It also gave a viability, T/C (second compound 0.3 µM, first compound 0.0316 µM) of 77.7%, a viability, T/C (second compound 0.3 µM, first compound 0.1 µM) of 84.8% and a viability, T/C (second compound 0.3 µM, first compound 0.316 µM) of 84%. For the same molecule, the viability, T/C (second compound 0.3 µM, first compound 1 µM) was 71.8%, the viability, T/C (second compound 0.3 µM, first compound 3.16 µM) was 56.4% and the viability, T/C (second compound 0.3 µM, first compound 10 µM) was 45.6%. It also gave a viability, T/C (second compound 0.949 µM, first compound 0.0316 µM) of 67.4%, a viability, T/C (second compound 0.949 µM, first compound 0.1 µM) of 82.2% and a viability, T/C (second compound 0.949 µM, first compound 0.316 µM) of 68.6%. The viability, T/C (second compound 0.949 µM, first compound 1 µM) was 58%, the viability, T/C (second compound 0.949 µM, first compound 3.16 µM) was 57.8% and the viability, T/C (second compound 0.949 µM, first compound 10 µM) was 56%. For the same molecule, the viability, T/C (second compound 3 µM, first compound 0.0316 µM) was 83.4%, the viability, T/C (second compound 3 µM, first compound 0.1 µM) was 74.5% and the viability, T/C (second compound 3 µM, first compound 0.316 µM) was 81.2%. For the same molecule, the viability, T/C (second compound 3 µM, first compound 1 µM) was 68.5%, the viability, T/C (second compound 3 µM, first compound 3.16 µM) was 49.3% and the viability, T/C (second compound 3 µM, first compound 10 µM) was 51.9%.

For CCNC(=O)CC1N=C(c2ccc(Cl)cc2)c2cc(OC)ccc2-n2c(C)nnc21 (centres undefined) + COc1cc2nc(C)nc(NC(C)c3cc(N)cc(C(F)(F)F)c3)c2cc1OC1CCOC1, the IC50 (second compound 0.0316 µM) was > 10 µM, the IC50 (second compound 0.1 µM) was > 10 µM and the IC50 (second compound 0.316 µM) was > 10 µM. The IC50 (second compound 1 µM) was > 10 µM, the IC50 (second compound 3.16 µM) was > 10 µM and the IC50 (second compound 10 µM) was > 10 µM. It also gave a viability, T/C (second compound 0.0316 µM, first compound 0.0316 µM) of 89.6%, a viability, T/C (second compound 0.0316 µM, first compound 0.1 µM) of 94% and a viability, T/C (second compound 0.0316 µM, first compound 0.316 µM) of 94.3%. For the same molecule, the viability, T/C (second compound 0.0316 µM, first compound 1 µM) was 113%, the viability, T/C (second compound 0.0316 µM, first compound 3.16 µM) was 114% and the viability, T/C (second compound 0.0316 µM, first compound 10 µM) was 120%. The viability, T/C (second compound 0.1 µM, first compound 0.0316 µM) was 78.7%, the viability, T/C (second compound 0.1 µM, first compound 0.1 µM) was 86.2% and the viability, T/C (second compound 0.1 µM, first compound 0.316 µM) was 89.3%. It also gave a viability, T/C (second compound 0.1 µM, first compound 1 µM) of 85.6%, a viability, T/C (second compound 0.1 µM, first compound 3.16 µM) of 124% and a viability, T/C (second compound 0.1 µM, first compound 10 µM) of 84.3%. For the same molecule, the viability, T/C (second compound 0.316 µM, first compound 0.0316 µM) was 86.4%, the viability, T/C (second compound 0.316 µM, first compound 0.1 µM) was 90.2% and the viability, T/C (second compound 0.316 µM, first compound 0.316 µM) was 105%. It also gave a viability, T/C (second compound 0.316 µM, first compound 1 µM) of 99.6%, a viability, T/C (second compound 0.316 µM, first compound 3.16 µM) of 89.5% and a viability, T/C (second compound 0.316 µM, first compound 10 µM) of 88.5%. The viability, T/C (second compound 1 µM, first compound 0.0316 µM) was 89.8%, the viability, T/C (second compound 1 µM, first compound 0.1 µM) was 79.9% and the viability, T/C (second compound 1 µM, first compound 0.316 µM) was 73%. For the same molecule, the viability, T/C (second compound 1 µM, first compound 1 µM) was 105%, the viability, T/C (second compound 1 µM, first compound 3.16 µM) was 100% and the viability, T/C (second compound 1 µM, first compound 10 µM) was 90%. The viability, T/C (second compound 3.16 µM, first compound 0.0316 µM) was 73.5%, the viability, T/C (second compound 3.16 µM, first compound 0.1 µM) was 81.1% and the viability, T/C (second compound 3.16 µM, first compound 0.316 µM) was 75.9%. It also gave a viability, T/C (second compound 3.16 µM, first compound 1 µM) of 82.3%, a viability, T/C (second compound 3.16 µM, first compound 3.16 µM) of 84.6% and a viability, T/C (second compound 3.16 µM, first compound 10 µM) of 109%. It also gave a viability, T/C (second compound 10 µM, first compound 0.0316 µM) of 60.6%, a viability, T/C (second compound 10 µM, first compound 0.1 µM) of 55.9% and a viability, T/C (second compound 10 µM, first compound 0.316 µM) of 69.5%. The viability, T/C (second compound 10 µM, first compound 1 µM) was 70%, the viability, T/C (second compound 10 µM, first compound 3.16 µM) was 82.1% and the viability, T/C (second compound 10 µM, first compound 10 µM) was 74.8%.
